Measured values: US20110124842A1 (priority 2003, published 2011)
Read-outs that look alike come from different tables or passages of the source.

Legend:
[1] = Circular dichroism spectroscopy of free peptides in solution (helicity); type: physicochemical; settings: FIG. 48
Method: To determine whether the imposed constraints increased the helicity of the peptides, each one was analyzed in solution using circular dichroism (CD) spectroscopy (FIG. 48). An Aviv spectropolarimeter Model 203-02 was used, with cells of 0.1 cm in length, a wavelength step of 0.5 nm and a bandwidth of 1.0 nm. One to three scans were reported. The exact peptide concentrations were determined by UV measurements at 280 nm on a Gison UV detector, model 116.

[2] = tested on: HIV-1 JR-CSF; type: cell-based; settings: JRCSF; peptide at 30 μg/ml; FIG. 49
Method: (§1) FIG. 49 is a bar graph showing the ability of peptide […]-NH2 (SEQ ID NO: 8) to block neutralization of HIV-1 by 4E10. Replication competent HIV-1 (SF 162 and JR-CSF), produced in human PBMCs, were assayed for neutralization by 4E10 (100 μg/ml) in TZM-b1 cells, in the presence (white bars) or absence (black bars) of an excess of peptide.
(§2) To further investigate the interaction of peptide analogs and 4E10, the inhibitory effect of the best analogs on neutralization by 4E10 was assessed. Neutralization assays were performed in two different formats. In the first, replication competent HIV-1SF162 was assayed for neutralization using TZM-b1 cells as indicator cells (Wei, X., 2002). Alternatively, a pseudotype assay was used in which recombinant HIV-1JR-CSF virions, competent for a single round of infection, were generated using the luciferase reporter plasmid pNL4-3.Luc.R-E-, as described previously (Connor, R. I., 1995; Zwick, M. B., 2003), and the pseudovirus assayed for neutralization using U87.CD4.CCR5 cells as target cells (Bjorndal, A., 1997). In all cases, the competitor peptide ([…]-NH2; SEQ ID NO: 8) and IgG 4E10 were pre-incubated for 30 minutes at 37° C. […] The degree of virus neutralization was determined as a percentage reduction of viral infectivity against an Ab-free control. […]

[3] = tested on: HIV-1SF162; type: cell-based; settings: peptide at 30 μg/ml, FIG. 49
Method: as §1, §2

[4] = tested on: HIV-1JR-FL; test: Peptide effect on neutralization by antibodies and sera, pseudotyped virus, U87.CD4.CCR5 cells; type: cell-based; settings: FIG. 50
Method: FIG. 50 represents graphs showing the effect of peptide […]-NH2 (SEQ ID NO: 8) on neutralization of HIV-1 by polyclonal antibodies and sera. HIV-1JR-FL, pseudotyped using the pNL4-3.Luc reporter plasmid, was assayed for neutralization using pooled polyclonal IgG from HIV-1 seropositive individuals (HIVIG), broadly neutralizing serum from the FDA2 individual and normal human serum spiked with 4E10 at 200 μg/ml in the undiluted serum. Neutralization assays were performed using U87.CD4.CCR5 cells as target cells, in the presence (open symbols) or absence (closed symbols) of peptide […]-NH2 (SEQ ID NO: 8). Note that the zero point in serum dilution corresponds to only 30 μg/ml 94-1 being present.
To further investigate the interaction of peptide analogs and 4E10, the inhibitory effect of the best analogs on neutralization by 4E10 was assessed. Neutralization assays were performed in two different formats. In the first, replication competent HIV-1SF162 was assayed for neutralization using TZM-b1 cells as indicator cells (Wei, X., 2002). Alternatively, a pseudotype assay was used in which recombinant HIV-1JR-CSF virions, competent for a single round of infection, were generated using the luciferase reporter plasmid pNL4-3.Luc.R-E-, as described previously (Connor, R. I., 1995; Zwick, M. B., 2003), and the pseudovirus assayed for neutralization using U87.CD4.CCR5 cells as target cells (Bjorndal, A., 1997). In all cases, the competitor peptide ([…]-NH2; SEQ ID NO: 8) and IgG 4E10 were pre-incubated for 30 minutes at 37° C. (60 μg/ml), then the mixture was added (1:1 by volume) to HIV-1, and the resulting mixture incubated for a further hour at 37° C. The mixture of peptide, 4E10, and HIV-1 was then added (1:1 by volume) to the target cells, and the assay developed using luciferase reagent (Promega) following 48-72 hour incubation at 37° C. The degree of virus neutralization was determined as a percentage reduction of viral infectivity against an Ab-free control. All experiments were performed in triplicate and repeated at least twice with similar results.

[5] = tested on: Fab 4E10; test: Surface plasmon resonance (Biacore 2000), Fab 4E10 on CM5 chip; type: binding, human
Method: The affinitiefs of the peptide analogs for 4E10 were also measured by surface plasmon resonance. Surface plasmon resonance experiments were performed using a Biacore 2000 instrument (Uppsala, Sweden). Around 2,200 response units (RU) of Fab 4E10 were coated on CM5 chips. The carboxyl groups on the chip were activated with 1-ethyl-3-(3-dimethylaminopropyl)carbodiimide hydrochloride (EDC) and N-hydroxysuccinimide (NHS). Fifty micrograms of Fab were diluted in 10 mM sodium acetate pH 4.5; a flow rate of 5 μl/min was used. Unreacted carboxyl groups were blocked with 1M ethanolamine at pH 8.5. The control was treated in the same fashion without any antibody present. Different amounts of free peptides were then passed over the surfaces at 30 or 50 μl/min for 2 min. Regeneration was done in HPS-EP buffer, 0.25 NaCl (Biacore) in 10 minutes. The amount of salt was increased compared to the commercial buffer to reduce the non-specific binding. For data evaluation, the BIAevaluation software was used. RI and Rmax were controlled, double referencing were done (0 concentration and start point). Analyses were performed to achieve the best curve fitting and small chi^2 (<1).
Surface plasmon resonance experiments were performed using a Biacore 2000 instrument (Uppsala, Sweden).
Chip preparation: around 2,200 response units (RU) of Fab 4E10 were coated on CM5 chips. The carboxyl groups on the chip were activated with 1-ethyl-3-(3-dimethylaminopropyl) carbodiimide hydrochloride (EDC) and N-hydroxysuccinimide (NHS). Fifty micrograms of Fab was diluted in 10 mM sodium acetate pH 4.5; a flow rate of 5 μl/min was used. Unreacted carboxyl groups were blocked with 1M ethanolamine at pH 8.5. The control was treated in the same fashion without any antibody present.
Experiment: different amounts of free peptides were then passed over the surfaces at 30 or 50 μl/min for 2 min. Regeneration was done in HPS-EP buffer, 0.25 NaCl (Biacore) in 10 min. The amount of salt was increased compared to the commercial buffer to reduce the non-specific binding.
Data evaluation: the BIAevaluation software was used. RI and Rmax were controlled, double referencing were done (0 concentration and start point). Analyses were performed to achieve the best curve fitting and small chi^2 (<1).

## NWFDITNWLWYIKKKK [Peptide 94-1, NWFDITNWLWYIKKKK-NH2]
[1]
  helicity in solution by CD: more helical than 84-1
[2]
  block of neutralization by 4E10: could block the neutralization
[3]
  block of neutralization by 4E10: could block the neutralization
[4]
  block of neutralization by normal sera spiked with 4E10: blocks neutralization
  block of neutralization by the reference sera FDA2: does not block neutralization
[4]; HIVIG
  block of neutralization by polyclonal IgG from HIV-1 infected donors: does not block neutralization
[5]; Table 7
  higher affinity of 4E10 than to peptide 33-1: about 17 fold
  koff: 0.0138 s⁻¹
  kon: 691000 M⁻¹ s⁻¹
[5]; Table 7, 4E10 peptide epitopes, read-out: Kd
  Kd: 20 nM
[5]; read-out: Kd (Biacore)
  Kd: 18 nM
